Read-outs that look alike come from different tables or passages of the source.
Experiments:
[1] = cited from earlier work
[2] = tested on: mice; settings: cited from earlier work
[3] = tested on: rabbits; settings: cited from earlier work
[4] = tested on: rats; settings: cited from earlier work
[5] = tested on: rats; settings: cited from earlier work; remark: listed apart in the source
[6] = cited from earlier work; for DT50 (hydrolysis): 40° C.; for DT 50 (calculated) (hydrolysis): 20° C.
[7] = tested on: rats; settings: cited from earlier work; remark: listed apart in the source
[8] = AHS stability study in trilaminated pouches, 14 days at 30, 45 and 54° C.: active content and pH of 1% aq. solution/suspension; assay type: physicochemical; settings: for extent to which Acephate degrades: 54° C.
Description: Acephate technical of 97.5% purity was taken and kept in AHS stability study at 30, 45 and 54° C. in trilaminated pouches. The results of the AHS experiment for Acephate Technical are seen in the following Tables 1, 2 and 3.
40 gm Acephate technical of 97.5% purity was taken from plant and mixed with 10 gm of citric acid by using laboratory made mixture to obtained homogenious powder and is then kept in AHS at 30, 45 and 54° C. in trilaminated pouches.
40 gm Acephate technical of 97.5% purity was taken from plant and mixed with 5 gm of citric acid by using laboratory made mixture to obtained homogenious powder and is the kept in AHS at 30, 45 and 54° C. in trilaminated pouches.
48 gm Acephate technical of 97.5% purity was taken from plant and mixed with 2 gm of citric acid by using laboratory made mixture to obtained homogenious powder and is the kept in AHS at 30, 45 and 54° C. in trilaminated pouches.
Acephate technical of 97.5% purity was taken from the plant and mixed in a laboratory mixer by adding 1% water and was then kept in AHS stability study at 30° C., 45° C. and 54° C. in trilaminated pouches.
Acephate technical of 97.5% purity was taken from the plant and mixed in laboratory mixer by adding 1% water 4% citric acid and was then kept in AHS stability study at 30, 45 and 54° C. in trilaminated pouches.
Imidacloprid technical was taken from the plant and is kept in AHS stability study at 30, 45 and 54° C. in trilaminated pouches.
Imidacloprid technical was taken from the plant and mixed in laboratory mixer by adding 1% water and is then is kept in AHS stability study at 45 and 54° C. in trilaminated pouches.
40 gm of Imidacloprid technical and 10 gm of citric acid was mixed in laboratory mixer and was then kept in AHS stability study at 30, 45 and 54° C. in trilaminated pouches,
45 gm of Imidacloprid technical and 05 gm of citric acid was mixed in laboratory mixer and was then kept in AHS stability study at 30° C., 45° C. and 54° C. in trilaminated pouches.
48 gm of Imidacloprid technical and 2 gm of citric acid was mixed in laboratory mixer and was then kept in AHS stability study at 30, 45 and 54° C. in trilaminated pouches.
49.5 gm of Imidacloprid technical and 0.5 gm of citric acid was mixed in laboratory mixer and was then kept in AHS stability study at 30, 45 and 54° C. in trilaminated pouches.
Imidacloprid technical was taken from plant and mixed in laboratory mixer by adding 10 gm citric acid and 2 gm water and is then is kept in AHS stability study at 30, 45 and 54° C. in trilaminated pouches,
Imidacloprid technical was taken from the plant and mixed in laboratory mixer by adding 5 gm citric acid and 2 gm water and was then kept in AHS stability study at 30, 45 and 54° C. in trilaminated pouches.
53 gm of Acephate technical was taken from the plant and mixed in a laboratory mixer by adding 3 gm imidacloprid without coating and without any citric acid. This was then kept in AHS stability study at 30, 45 and 54° C. in trilaminated pouches.
53 gm of Acephate technical was taken from the plant and mixed in a laboratory mixer by adding 3 gm imidacloprid without encapsulation and with 2.2 gm of citric acid . This was then kept in AHS stability study at 30, 45 and 54° C. in trilaminated pouches.
In a laboratory plough shear mixture 291.5 gm of Imidacloprid of particle size ranging from 15 micron to 50 micron was charged and blended by operating only the plough. Then 204 gm PEG-8000 was heated in a separate vessel at 65° C. for 15 min. […]

[9] = tested on: crop plants; settings: in vivo; cited from earlier work
[10] = tested on: insect; assay: Synergistic insecticidal effect of Imidacloprid + Acephate (mortality, Colby's method); assay type: in vivo
Description: Synergism can be calculated by using the Colby's method i.e. the expected (or predicted) response of the combination is calculated by taking the product of the observed response for each individual component of the combination when applied alone divided by 100 and subtracting this value from the sum of observed response for each component when applied alone. Synergism of the combination is then determined by comparing the observed response of the combination to the expected (or predicted) response as calculated from the observed response of each individual component alone. If the observed response of the combination is greater than the expected (or predicted) response then the combination is said to be synergistic and falls within the definition of synergistic effect. (Colby, S. R., Weeds, 1967(15), p. 20-22)

[11] = in vivo; cited from earlier work
[12] = mammals, oral administration, within 24 hours, almost entirely in the urine; cited from earlier work

For `C/C(=N\C#N)N(C)Cc1ccc(Cl)nc1` [Acetamiprid], the “solubility in organic solvents” value ([1]; acetone, methanol, ethanol, dichloromethane, chloroform, acetonitrile and tetrahydrofuron) is listed as “soluble”, the “acute oral LD50” value ([2]; female mice) is listed as 184 mg/kg and the “acute oral LD50” value ([2]; male mice) is listed as 198 mg/kg. The “irritation to skin and eyes” value [3] was “Non irritating”, the “inhalation LC50 (4 h)” value ([4]; male and female rats) was greater than 0.29 mg/L and the “acute oral LD50” value ([5]; female rats) was 146 mg/kg. The “acute oral LD50” value ([5]; male rats) was 217 mg/kg, the “stability in buffered solutions” value ([6]; pH 4, 5, 7) was “Stable” and the “stability” value ([6]; pH 9 and 45° C.) was “Degraded slowly”. For the same compound, the “stability under sunlight” value ([6]; sunlight) was “Stable” and the “Acute percutaneous LD50” value ([7]; male and female rats) was greater than 2000 mg/kg.

For `COP(=O)(NC(C)=O)SC` (stereo not shown) [Experiment 1, O,S-dimethylacetylphosphoramidothioate], the solubility in ethanol ([1]; 20° C.) is given as greater than 100 mg/mL, the solubility in water ([1]; 20° C.) is given as “about 790 g/l” and the “extent to which Acephate degrades” value ([8]; presence of 1% moisture, absence of Citric acid, initial pH of 4.70) is given as 12.84%. For the same compound, the “extent to which Acephate degrades” value ([8]; presence of Citric acid and 1% moisture, initial pH 3.18) was 6.88%, the “phytotoxicity” value [9] was “non-phytotoxic to most crop plants” and the “Observed Mortality %” value ([10]; Imidacloprid 0 ppm, Acephate 600 ppm) was 52.50%. For the same compound, the “Observed Mortality %” value ([10]; Imidacloprid 0 ppm, Acephate 700 ppm) was 60.00%, the “Observed Mortality %” value ([10]; Imidacloprid 0 ppm, Acephate 800 ppm) was 70.00% and the “DT50 (hydrolysis)” value ([6]; pH 3) was 710 h. For the same compound, the “DT50 (hydrolysis)” value ([6]; pH 9) was 60 h.

For `O=[N+]([O-])NC1=NCCN1Cc1ccc(Cl)nc1` [Experiment 7, 1-(6-chloro-3-pyridylmet-hyl)-N-nitroimidazolidin-2-yldeneamine], the solubility in hexane ([1]; 20° C.) is listed as less than 0.1 mg/mL, the “Stability of Imidacloprid” value ([8]; pH of 2.68, Imidacloprid:citric acid 40:10) is listed as “still more unstable” and the “Stability of Imidacloprid” value ([8]; pH of 3.60, Imidacloprid:Citric acid 49.5:0.5) is listed as “unstable”. The “Stability of Imidacloprid” value ([8]; pH of 5.90) was “stable”, the “irritation to skin and eyes” value [3] was “Non irritating” and the “inhalation LC50 (4 h)” value ([4]; female rats, aerosol) was greater than 5323 mg/m^3 air. For the same compound, the “Observed Mortality %” value ([10]; Imidacloprid 24 ppm, Acephate 0 ppm) was 55.00%, the “Observed Mortality %” value ([10]; Imidacloprid 27 ppm, Acephate 0 ppm) was 69.25% and the “Observed Mortality %” value ([10]; Imidacloprid 30 ppm, Acephate 0 ppm) was 72.10%. For the same compound, the “Stability of imidacloprid reported in literature” value ([6]; pH of 5.60) was “stable”, the “skin sensitisation” value [11] was “Not a skin sensitiser” and the “Acute percutaneous LD50 (24 h)” value ([7]; rats, 24 h) was greater than 5000 mg/kg.

In the case of `CCN(CC)C(=O)C(Cl)=C(C)OP(=O)(OC)OC` [Phosphamidon, 2-chloro-2-diethylcarbamoyl-1-methylvinyldimethylphosphate], the “% of the dose excreted” value [12] is given as 85-90%, the “DT 50 (calculated) (hydrolysis)” value ([6]; pH 5) is given as 60 days and the “DT 50 (calculated) (hydrolysis)” value ([6]; pH 7) is given as 54 days. For the same compound, the “DT 50 (calculated) (hydrolysis)” value ([6]; pH 9) was 12 days.

— patent US8486429B2, “Storage stable formulation and a process for its preparation” (priority 2005, dated 2013)
